According to patent US6706754B2, “Reversed amidines and methods of using for treating, preventing, or inhibiting leishmaniasis” (The United States of America as represented by the …, priority 2000, dated 2004):
Values after ≈ are worked out from the molar mass of the structure shown. “Also recorded” adds a separate entry of the source. Where a name gives a salt, the structure may show the parent alone.

Experiments:
[1] = tested on: L. donovani axenic amastigote-like parasites; experiment: Axenic amastigote assay (CellTiter 96 tetrazolium dye growth assay); format: cell-based; conditions: 72 hours, 37° C., pH 5.5, concentration that inhibited parasite growth by 50%
Experimental: The growth susceptibilities of L. donovani axenic amastigote-like parasites to the candidate compounds were measured in a three day assay using the tetrazolium dye-based CellTiter 96 Aqueous Non-Radioactive Cell Proliferation Assay Kit (Promega, Madison, Wis.) according to Werbovetz, K., et al. (1999) Mol. Biochem. Parasitol. 98:53-65, which is herein incorporated by reference. Pentamidine, at a starting concentration of 100 μM, and serial dilutions thereof were used as controls. Specifically, L. donovani axenic amastigotes, as described by Joshi, M. et al. (1993) Mol. Biochem. Parasitol. 58:345-354, which is herein incorporated by reference, were seeded at 10^6 cells/ml in 96-well flat-bottomed plates (Costar, Cambridge, Mass.) and maintained as axenic amastigote-like forms by serial passage at 37° C. in a humid atmosphere comprising 5% CO2 using a slightly modified potassium-based version of the medium described by Joshi, M. et al. (1993) in the presence or absence of a given candidate compound. The medium comprised 15 mM KCl, […] KH2PO4, 10 mM K2HPO4, 0.5 mM MgSO4, and 24 mM NaHCO3 to give a final potassium concentration of […]. The medium was supplemented with 20% fetal bovine serum and was brought to pH 5.5. The final volume in each well was 60 μl. The plates were incubated at 37° C. for 72 hours, then 12 μl of the aqueous CellTiter solution from the kit (Promega, Madison, Wis.) was added to each well according to the instructions of the manufacturer. The plates were returned to the incubator for about 2 to about 3 hours. Then the absorbance of each well was measured at 490 nm using a SpectraMax Plus microplate reader (Molecular Devices, Sunnyvale, Calif.).
The results for each candidate compound may be found in the FIG. 1. The IC50 values (the concentration of the agent that inhibited parasite growth by 50%) for each candidate compound were determined for axenic amastigotes with the aid of the program SoftMax Pro (Molecular Devices, Sunnyvale, Calif.) using the following dose response equation: y=((a−d)/1+(x/c)^b)+d, wherein x=drug concentration; y=absorbance at 490 nm; a=upper asymptote; b=slope; c=IC50; and d=lower asymptote. FIG. 2 is the graphical data obtained for compound 1DWB667 as an example.

[2] = tested on: L. mexicana infected macrophages; experiment: Infected macrophage assay, L. mexicana; format: cell-based; conditions: for Macrophage IC50 L. mexicana: J774.G8 mouse macrophages, 72 hours, 33° C., number of infected macrophages inhibited by 50%
Experimental: The susceptibilities of L. mexicania infected macrophages to candidate compounds were determined by the following assay.
(§1) A one week old, confluent culture of J774.G8 mouse macrophages was washed three times with Hank's Balanced Salt Solution (HBSS) without calcium and magnesium (Sigma, St. Louis, Mo.). The J774.G8 mouse macrophages are a continuous cell line that have been cited in the literature as supporting continuous and intracellular growth of various Leishmania sp. and they have been used for drug assays against intracellular parasites, Trypanosoma cruzi and Leishmania sp. See Alcina, A., et al. (1988) Antimicrobial Agents & Chemotherapy. 32(9):1412-5; Mendez, S., et al. (1996) International Journal for Parasitology 26(6):619-22; Hodgkinson, V. H., et al. (1996) Experimental Parasitology 83(1):94-105; and Chang, K. P. (1980) Science 209(4462): 1240-42, which are herein incorporated by reference.
(§2) The macrophages were then incubated at 37° C. in a humidified 5% CO2 incubator for 15 minutes with a Trypsin-EDTA (0.05% Trypsin, 0.53 mM EDTA 4Na) solution (GIBCO BRL, Grand Island, N.Y.). The macrophages were then detached with a cell scraper and suspended by vigorous pipetting. The macrophages were then mixed with a late log phase culture of L. mexicana promastigotes to yield a solution comprising about 5×10^5 macrophages per ml and about 25×10^5 promastigotes per ml in DMEM (pH 7.4) supplemented with 10% heat inactivated fetal calf serum comprising penicillin (50 units/ml) and streptomycin (50 μg/ml).
(§3) The macrophage-parasite mixture was then pipetted into 96-well flat-bottom plates (Costar, Cambridge, Mass.) at 200 μl per well. Infection and attachment of the macrophages was allowed to occur over a period of about 48 hours at 33° C. in a humidified 5% CO2 incubator. The wells were washed three times with HBSS to remove extracellular parasites. Each well was then treated with serial dilutions of a given candidate compound in DMEM.
(§4) The treated plate was incubated for about 72 hours at 33° C. in a humidified 5% CO2 incubator. The macrophages in each well were detached into the DMEM used for the incubation by pipetting and scraping with the tip of a microliter pipettor. 75 μl of the cell suspension was transferred to a cytospin funnel and the cells were centrifuged onto microscope slides at 800 rpm for 5 minutes using a Cytospin centrifuge (Shandon, Pittsburgh, Pa.).
(§5) The slides were air dried and then fixed in methanol for 5 seconds. After the methanol evaporated, the slides were stained with 5% Giemsa stain (Fisher, Suwanee, Ga.) in phosphate buffer comprising 3.1 mM potassium phosphate dibasic and 8.3 mM sodium phosphate monobasic for 45 minutes. After thorough washing with flowing tap water, the slides were air dried and then viewed by oil immersion microscopy to determine percentage of infected cells. A cell was considered to be infected if it comprised one or more amastigote with a visible parasite nucleus and kinetoplast. Counting parasites and counting infected cells provided similar results when determining IC50 values.
(§6) The IC50 values (the concentration of the compound that inhibited the number of infected macrophages by 50%) were determined with the software program TableCurve (SPSS Science, Chicago, Ill.) using the following dose-response equation: y=a+b/(1+(x/c)^d), where x=the drug concentration, y=absorbance at 490 nm, a=upper asymptote, b=slope, c=IC50 and d=lower asymptote. FIG. 3 provides the graphical data obtained for compound 1DWB667 as an example.

L. donovani L82 = experiment: In vivo assay, murine visceral model of leishmaniasis; parameters: species or system Leishmania donovani; conditions: BALB/c mice; for % inhibition ± S.E.M.: Table 4
J774.G8 macrophages = experiment: Macrophage toxicity assay (sulforhodamine B); format: cell-based, mouse; conditions: Mus musculus, 72 hours, 37° C., macrophage growth inhibited by 50%
Experimental: The toxicity of the candidate compounds on J774.G8 macrophages was measured using a sulforhodamine B (Molecular Probes, Eugene, Oreg.) based dye assay.
Specifically, a confluent culture of macrophages in a T75 culture flask was harvested by replacing the growth medium (DMEM supplemented with 10% heat inactivated fetal calf serum, 50 units/ml penicillin, and 50 μg/ml streptomycin) with 25 ml of fresh medium and scraping the cells from the bottom of the culture flask. Cell clumps were broken up by gentle pipetting and the cell suspension was transferred to a 50 ml conical centrifuge tube. The cells were then pelleted by centrifugation at 1,000 rpm at 4° C. for 5 minutes. The supernatant was then removed and the cells were resuspended in 15 ml DMEM.
After counting an aliquot of the cell suspension, the macrophages were then diluted to about 1×10^5 cells/ml in DMEM and 180 μl was added to each well of a 96 well tissue culture plate Then 20 μl serial dilutions of a given candidate compound was added. The plate was then placed in a 37° C. humidified 5% CO2 incubator and incubated for 72 hours. Then 50 μl of 50% TCA was added to each well to fix the proteins. The plate was then incubated for at least 1 hour at 4° C.
The liquid contents of the wells were discarded and the wells were washed five times with 200 μl of distilled water. After the final wash the plate was allowed to air dry for 20 minutes. 100 μl of the sulforhodamine B dye (0.4% dye in 1% acetic acid) was added. The plate was then incubated at room temperature for 20 minutes. After discarding the dye solution, the wells were washed five times with 200 μl of 1% acetic acid and then allowed to air dry for 20 minutes. At this time, 50 μl of 10 mM TRIS base was added. After a few minutes of incubation, the absorbance of each well at 490 nm was measured in a SpectraMax Pro microplate reader (Molecular Devices, Sunnyvale, Calif.).
The IC50 values for each candidate compound (the concentration of the agent that inhibited macrophage growth by 50%) were determined for the macrophages with the aid of the program SoftMax Pro (Molecular Devices, Sunnyvale, Calif.) using the following dose response equation: y=((a−d)/1+(x/c)^b)+d, where x=drug concentration; y=absorbance at 490 nm; a=upper asymptote; b=slope; c=IC50; and d=lower asymptote. FIG. 5 provides the graphical data for compound 1DWB667 as an example.

[3] = tested on: L. donovani infected macrophages; experiment: Infected macrophage assay, L. donovani; format: cell-based; conditions: J774.G8 mouse macrophages, 72 hours, 37° C.; number of infected macrophages inhibited by 50%
Excerpt: as §1, §2, §3, §4, §5, §6
The susceptibility of L. donovani infected macrophages to the compounds of the present invention were preformed by a modified protocol for L. mexicana infected macrophages above, wherein all incubations of the parasite infected macrophages were done at 37° C. rather than 33° C. FIG. 4 provides the graphical data for compound 1DWB667 as an example.

## N=C(N)c1ccc(OCCCCCOc2ccc(C(=N)N)cc2)cc1 [Pentamidine, reference compound]
[1]; Leishmania donovani
  IC50: 1.22 µg/mL (≈ 3.58 µM)
[2]; Leishmania mexicana, Macrophage, in Mus musculus, 72 h, read-out: Macrophage IC50 L. mexicana
  IC50: > 12.5 µg/mL
[2]; in vitro, cutaneous strain
  reduction of parasite burden in L. mexicana infected macrophages (in words): ineffective in the macrophage model; also recorded: did not reduce the parasite burden
L. donovani L82; Table 3, 5 mg/kg i.v. × 5 (doses reduced by half, see footnotes a, c)
  % Inhib. ± SEM: 30.5 ± 5.0%
L. donovani L82; 4 mg/kg i.v. × 5
  % inhibition ± S.E.M.: 16.96 ± 3.3%
L. donovani L82; Table 5, 4 mg/kg i.v. × 5
  % Inhib. ± SEM: 30.6 ± 5.2%
J774.G8 macrophages
  IC50: 9.96 µg/mL (≈ 29.3 µM)

## 2,5-Bis[2,6-dimethyl-4-(2-pyridylimino)aminophenyl]furan [DB 714]
[1]
  Axenic Amastigote IC50 L. donovani: 0.290 µg/mL
[3]
  Macrophage IC50 L. donovani: 0.246 µg/mL
[2]
  Macrophage IC50 L. mexicana: 0.359 µg/mL

## c1cc(-c2ccc(-c3ccc(N=NC4CCCCC4)cc3)o2)ccc1N=NC1CCCCC1 [DB656, 2,5-Bis[4-(cyclohexylimino)aminophenyl]furan]
other
  melting point: 242 to 243 °C (dec.)

## N=C(Nc1ccc(-c2ccc(-c3ccc(NC(=N)c4ccccc4)cc3)o2)cc1)c1ccccc1 (as salt: hydrochloride) [DB613, 2,5-Bis[4-(benzimidoylamino)phenyl]furan]
other
  melting point: 312 to 314.5 °C

## 2,5-Bis[2-methyl-4-(2-quinolylimino)aminophenyl]furan [DB716]
[1]
  Axenic Amastigote IC50 L. donovani: about 10 μg/ml

## N=C(N)Nc1ccc(-c2ccc(-c3ccc(NC(=N)N)cc3)s2)cc1 [DB686, 2,5-Bis(4-guanidinophenyl)thiophene]
L. donovani L82; 10 mg/kg p.o. × 5
  % inhibition ± S.E.M.: 34.91 ± 8.04%

## C[C@@H]1[C@H](O)[C@@H](C)/C=C/C=C/C=C/C=C/C=C/C=C/C=C/[C@H](O[C@@H]2O[C@H](C)[C@@H](O)[C@H](N)[C@@H]2O)C[C@@H]2O[C@](O)(C[C@@H](O)C[C@@H](O)[C@H](O)CC[C@@H](O)C[C@@H](O)CC(=O)O[C@H]1C)C[C@H](O)[C@H]2C(=O)O [Amphotericin B, reference compound]
[1]
  Axenic Amastigote IC50 L. donovani: 0.342 µg/mL
[3]
  Macrophage IC50 L. donovani: 0.024 µg/mL
[2]
  Macrophage IC50 L. mexicana: 0.032 µg/mL
